Read-outs that look alike come from different tables or passages of the source.
Tests used:
BLK = biological target: T1, BLK (Homo sapiens, UniProt P51451); assay: PanQinase kinase panel: BLK; type: biochemical; details: read-out: INHIBITORY EFFECT @ 1 uM: BLK
T1 construct: purchased Reaction Biology Europe GmbH
Experimental: (§1) Screening procedures were performed in accordance with the company's on-line protocol [accessed on-line Mar.
(§2) For each kinase, the median value of the cpm of three wells was defined as “low control” (n=3). This value reflects unspecific binding of radioactivity to the plate in the absence of a protein kinase but in the presence of the substrate. Additionally, for each kinase the median value of the cpm of three other wells was taken as the “high control,” i.e. full activity in the absence of any inhibitor (n=3). The difference between high and low control of each enzyme was taken as 100% activity.
As part of the data evaluation the low control of each kinase was subtracted from the high control value as well as from their corresponding “compound values”.

ARAF YDYD = biological target: T2, ARAF YDYD (Homo sapiens, UniProt P10398, Y301D/Y302D); assay: PanQinase kinase panel: ARAF YDYD; type: biochemical; details: read-out: INHIBITORY EFFECT @ 1 uM: ARAF YDYD
T2 construct: purchased Reaction Biology Europe GmbH
T2 sequence (P10398 1-606 Y301D/Y302D): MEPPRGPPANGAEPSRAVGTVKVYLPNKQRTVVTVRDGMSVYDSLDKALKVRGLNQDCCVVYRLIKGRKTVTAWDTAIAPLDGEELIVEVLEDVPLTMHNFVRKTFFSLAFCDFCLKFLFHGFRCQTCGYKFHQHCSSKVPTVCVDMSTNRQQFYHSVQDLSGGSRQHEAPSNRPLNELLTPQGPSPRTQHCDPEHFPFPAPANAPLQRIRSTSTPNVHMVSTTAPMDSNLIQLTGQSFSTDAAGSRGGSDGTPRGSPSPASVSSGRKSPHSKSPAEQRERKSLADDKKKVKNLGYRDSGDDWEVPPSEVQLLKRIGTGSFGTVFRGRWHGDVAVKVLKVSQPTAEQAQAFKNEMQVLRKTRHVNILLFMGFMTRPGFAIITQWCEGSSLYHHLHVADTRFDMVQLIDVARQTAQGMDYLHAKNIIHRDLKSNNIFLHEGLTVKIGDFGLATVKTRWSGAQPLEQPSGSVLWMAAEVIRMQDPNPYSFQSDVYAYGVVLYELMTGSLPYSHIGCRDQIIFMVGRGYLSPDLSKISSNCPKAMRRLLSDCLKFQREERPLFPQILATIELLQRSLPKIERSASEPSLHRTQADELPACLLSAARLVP
Experimental: as §1, §2
(§3) As part of the data evaluation the low control of each kinase was subtracted from the high control value as well as from their corresponding “compound values”. The residual activity (in %) for each compound well was calculated by using the following formula: Res. Activity (%)=100×[(signal of compound−low control)/(high control−low control)].

TRKA = biological target: T3, TRKA (Homo sapiens, UniProt P04629); assay: PanQinase kinase panel: TRKA; type: biochemical
T3 construct: purchased Reaction Biology Europe GmbH
T3 sequence (P04629 33-796): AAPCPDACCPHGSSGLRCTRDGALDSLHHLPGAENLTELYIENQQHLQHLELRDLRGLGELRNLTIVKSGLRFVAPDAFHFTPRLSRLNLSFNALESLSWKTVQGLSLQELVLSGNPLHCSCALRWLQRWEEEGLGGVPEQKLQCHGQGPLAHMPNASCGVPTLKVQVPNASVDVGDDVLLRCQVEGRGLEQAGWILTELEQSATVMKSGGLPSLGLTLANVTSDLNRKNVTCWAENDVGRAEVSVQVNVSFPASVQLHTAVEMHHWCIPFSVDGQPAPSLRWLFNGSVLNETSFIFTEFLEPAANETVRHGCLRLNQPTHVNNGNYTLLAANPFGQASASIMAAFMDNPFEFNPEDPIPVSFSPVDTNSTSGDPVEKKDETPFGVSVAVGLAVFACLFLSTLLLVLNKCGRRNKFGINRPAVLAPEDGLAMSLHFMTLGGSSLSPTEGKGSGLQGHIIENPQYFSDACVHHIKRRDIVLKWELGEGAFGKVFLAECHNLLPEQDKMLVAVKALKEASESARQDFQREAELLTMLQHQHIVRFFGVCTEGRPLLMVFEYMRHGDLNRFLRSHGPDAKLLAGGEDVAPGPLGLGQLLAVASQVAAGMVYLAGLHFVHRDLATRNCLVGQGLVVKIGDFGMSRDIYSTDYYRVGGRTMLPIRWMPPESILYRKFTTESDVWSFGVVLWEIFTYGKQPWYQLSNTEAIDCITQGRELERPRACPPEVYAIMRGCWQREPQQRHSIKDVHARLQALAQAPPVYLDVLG
Experimental: as §1, §2, §3

INSR = biological target: T4, INSR (Homo sapiens, UniProt P06213); assay: PanQinase kinase panel: INSR; type: biochemical; details: read-out: INHIBITORY EFFECT @ 1 uM: INSR
T4 construct: purchased Reaction Biology Europe GmbH
T4 sequence (P06213 28-1382): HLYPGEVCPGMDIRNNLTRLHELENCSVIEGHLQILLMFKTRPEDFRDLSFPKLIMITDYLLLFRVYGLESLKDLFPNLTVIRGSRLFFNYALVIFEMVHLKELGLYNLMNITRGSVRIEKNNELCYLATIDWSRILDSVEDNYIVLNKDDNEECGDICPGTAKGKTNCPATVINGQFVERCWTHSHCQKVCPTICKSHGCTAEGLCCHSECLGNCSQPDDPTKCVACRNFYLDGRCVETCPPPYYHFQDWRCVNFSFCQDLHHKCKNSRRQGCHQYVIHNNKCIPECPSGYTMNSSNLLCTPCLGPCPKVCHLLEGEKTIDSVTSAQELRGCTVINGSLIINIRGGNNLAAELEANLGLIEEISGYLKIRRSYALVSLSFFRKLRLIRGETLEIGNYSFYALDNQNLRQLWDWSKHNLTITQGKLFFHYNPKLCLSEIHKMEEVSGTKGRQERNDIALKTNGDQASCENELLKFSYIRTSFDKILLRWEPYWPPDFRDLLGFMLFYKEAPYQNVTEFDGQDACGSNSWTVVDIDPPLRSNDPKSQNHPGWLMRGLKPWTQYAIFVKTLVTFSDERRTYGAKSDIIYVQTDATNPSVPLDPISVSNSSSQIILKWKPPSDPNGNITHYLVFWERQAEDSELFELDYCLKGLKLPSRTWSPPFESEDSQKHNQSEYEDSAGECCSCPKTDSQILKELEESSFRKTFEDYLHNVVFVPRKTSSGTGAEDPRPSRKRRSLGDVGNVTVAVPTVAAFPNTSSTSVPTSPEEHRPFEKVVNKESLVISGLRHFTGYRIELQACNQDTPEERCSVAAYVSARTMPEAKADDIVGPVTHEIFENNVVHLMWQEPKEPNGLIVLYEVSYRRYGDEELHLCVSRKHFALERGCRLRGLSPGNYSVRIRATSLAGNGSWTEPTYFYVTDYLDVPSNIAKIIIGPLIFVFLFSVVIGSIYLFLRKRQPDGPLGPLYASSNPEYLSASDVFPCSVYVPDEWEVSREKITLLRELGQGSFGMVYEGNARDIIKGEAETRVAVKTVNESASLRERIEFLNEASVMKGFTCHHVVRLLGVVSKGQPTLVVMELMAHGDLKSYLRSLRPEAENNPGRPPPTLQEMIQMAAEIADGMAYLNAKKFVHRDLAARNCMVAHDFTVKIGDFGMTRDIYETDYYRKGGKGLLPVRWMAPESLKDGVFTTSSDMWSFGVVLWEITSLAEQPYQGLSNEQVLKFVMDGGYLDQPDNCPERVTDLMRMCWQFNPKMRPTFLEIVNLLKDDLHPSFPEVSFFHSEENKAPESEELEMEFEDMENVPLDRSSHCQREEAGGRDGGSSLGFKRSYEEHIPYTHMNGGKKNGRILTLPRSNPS
Experimental: as §1, §2, §3

MEKK2 = biological target: T5, MEKK2 (Homo sapiens, UniProt Q9Y2U5); assay: PanQinase kinase panel: MEKK2; type: biochemical; details: read-out: INHIBITORY EFFECT @ 1 uM: MEKK2
T5 construct: purchased Reaction Biology Europe GmbH
T5 sequence (Q9Y2U5 1-619): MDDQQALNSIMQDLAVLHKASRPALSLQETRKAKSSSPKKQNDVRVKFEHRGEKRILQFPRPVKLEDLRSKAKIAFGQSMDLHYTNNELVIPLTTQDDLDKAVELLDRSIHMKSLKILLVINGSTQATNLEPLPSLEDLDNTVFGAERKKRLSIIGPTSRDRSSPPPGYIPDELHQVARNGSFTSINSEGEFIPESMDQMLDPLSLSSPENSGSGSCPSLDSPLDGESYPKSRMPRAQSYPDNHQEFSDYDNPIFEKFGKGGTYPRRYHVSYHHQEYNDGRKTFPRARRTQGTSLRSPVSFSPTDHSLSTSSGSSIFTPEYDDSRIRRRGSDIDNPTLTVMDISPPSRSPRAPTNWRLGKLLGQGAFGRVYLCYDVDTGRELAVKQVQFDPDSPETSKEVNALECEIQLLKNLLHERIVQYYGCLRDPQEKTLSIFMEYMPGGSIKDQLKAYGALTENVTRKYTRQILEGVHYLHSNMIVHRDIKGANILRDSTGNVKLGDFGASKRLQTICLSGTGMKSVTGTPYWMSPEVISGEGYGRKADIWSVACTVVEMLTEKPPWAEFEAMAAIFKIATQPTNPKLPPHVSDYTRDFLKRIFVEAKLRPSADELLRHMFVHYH
Experimental: as §1, §2, §3

MWCL-1 = assay: Apoptosis assay (annexin V flow cytometry) in Waldenstrom's Macroglobulinemia cells; type: cell-based, human; details: for IC50: Homo sapiens, read-out: Apoptosis IC50 (μM) in single-mutant WM Cell Lines (MWCL-1); for promoting apoptosis in WM cells (MWCL-1) compared with ibrutinib or zanubrutinib alone: in words
Experimental: Waldenström's Macroglobulinemia cells (MWCL-1) and the bone marrow stromal cells (BMSCs; HS-27A) were used in this study. The MWCL-1 is a lymphoplasmacytic lymphoma established from the bone marrow aspirate of a patient diagnosed with Waldenström's Macroglobulinemia. It was provided by Dr Stephen M. Ansell (MAYO file number 2021-121; 200 First Street SW, Rochester, Minnesota). This cell line was cultured in RPMI-1640 (Fisher Scientific) containing 10% fetal bovine serum (FBS) (Sigma Aldrich, St Louis, MO), 100U/ml of Penicillin-Streptomycin (Gibco™, ThermoFisher Scientific). The HS-27A bone marrow stromal cells were obtained from ATCC. They were maintained in RPMI 1640 (Fisher Scientific) supplemented with 100U/ml of Penicillin-Streptomycin (Gibco™, ThermoFisher Scientific) and 10% FBS (TakaraBio). Cells were cultured in a 37° C. tissue culture CO2 incubator.
For studies with compounds using a co-culture system of MWCL-1 and BMSCs, BMSCs were cultured in a 96-, 48- or 24-well plates and cultured until the 90% confluence was reached. […] After 1 hour, the MWCL-Icells were added to the BMSC to create a co-culture system. The cells were co-incubated for 72 hours. After incubation time, cell viability, apoptosis, and IgM release were measured.
For studying the effect of compounds on inducing apoptosis of Waldenström Macroglobulinemia cells (MWCL-1). Cells were washed with PBS, resuspended in Annexin V binding buffer (Biolegend), and stained with Alexa Fluor 647 annexin V (Biolegend), Propidium Iodide (BD Pharmigen), and CD45 antibody (Biolegend) for 15 minutes at RT and analyzed by flow cytometry. Data were collected on an CytoFLEX S Flow Cytometer (Beckman Coulter) and analysed with FCS Express Software (De Novo Software). Annexin V positive cells were considered apoptotic.

LIMK1 = biological target: T6, LIMK1 (Homo sapiens, UniProt P53667); assay: PanQinase kinase panel: LIMK1; type: biochemical
T6 construct: purchased Reaction Biology Europe GmbH
T6 sequence (P53667 whole entry): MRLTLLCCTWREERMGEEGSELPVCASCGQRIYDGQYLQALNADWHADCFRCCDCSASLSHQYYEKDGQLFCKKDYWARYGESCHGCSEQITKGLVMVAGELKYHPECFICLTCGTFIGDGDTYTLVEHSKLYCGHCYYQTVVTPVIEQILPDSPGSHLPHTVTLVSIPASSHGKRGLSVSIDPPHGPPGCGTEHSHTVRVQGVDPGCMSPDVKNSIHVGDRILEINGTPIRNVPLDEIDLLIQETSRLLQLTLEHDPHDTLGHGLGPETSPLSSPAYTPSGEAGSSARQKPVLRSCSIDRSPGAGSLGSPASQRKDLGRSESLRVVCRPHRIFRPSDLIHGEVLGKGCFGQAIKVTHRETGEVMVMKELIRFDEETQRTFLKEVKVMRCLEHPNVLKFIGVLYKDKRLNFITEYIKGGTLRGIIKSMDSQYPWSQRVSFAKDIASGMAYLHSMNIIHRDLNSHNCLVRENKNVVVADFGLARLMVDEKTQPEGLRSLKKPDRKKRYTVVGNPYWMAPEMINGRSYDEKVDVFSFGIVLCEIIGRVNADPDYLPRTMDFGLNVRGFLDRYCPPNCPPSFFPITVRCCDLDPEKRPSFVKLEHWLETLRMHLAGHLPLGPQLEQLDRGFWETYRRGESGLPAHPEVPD
Experimental: as §1, §2, §3

[1] = at 1 μM, read-out: inhibition of TRKA
[2] = read-out: INHIBITORY EFFECT @ 1 uM: TRKA
[3] = read-out: INHIBITORY EFFECT @ 1 uM: LIMK1

T1 sequence (P51451 whole entry): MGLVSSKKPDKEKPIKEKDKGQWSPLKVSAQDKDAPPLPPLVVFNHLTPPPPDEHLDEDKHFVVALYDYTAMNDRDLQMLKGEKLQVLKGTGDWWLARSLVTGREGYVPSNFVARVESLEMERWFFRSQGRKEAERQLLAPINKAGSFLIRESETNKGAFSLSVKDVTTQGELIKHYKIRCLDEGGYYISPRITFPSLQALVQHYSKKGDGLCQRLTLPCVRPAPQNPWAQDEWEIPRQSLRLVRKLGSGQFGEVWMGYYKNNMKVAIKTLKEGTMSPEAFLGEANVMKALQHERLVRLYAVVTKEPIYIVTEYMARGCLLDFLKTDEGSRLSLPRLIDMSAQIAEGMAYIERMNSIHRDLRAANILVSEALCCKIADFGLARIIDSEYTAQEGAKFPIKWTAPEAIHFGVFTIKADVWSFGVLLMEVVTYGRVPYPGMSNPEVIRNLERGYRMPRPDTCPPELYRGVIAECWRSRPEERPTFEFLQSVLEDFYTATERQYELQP

| Structure (SMILES) | inhibition at 1 µM (BLK) | inhibition at 1 µM (ARAF YDYD) | inhibition at 1 µM (TRKA; [1]) | inhibition at 1 µM (TRKA; [2]) | inhibition at 1 µM (INSR) | inhibition at 1 µM (MEKK2) | IC50 (MWCL-1; class symbol) | promoting apoptosis in WM cells (MWCL-1) compared with ibrutinib or zanubrutinib alone (MWCL-1) | inhibition at 1 µM (LIMK1; at 1 μM, read-out: inhibition of LIMK1) | inhibition at 1 µM (LIMK1; [3]) | IC50 (MWCL-1; numeric) |
| --- | --- | --- | --- | --- | --- | --- | --- | --- | --- | --- | --- |
| O=C(c1ccc(Oc2ccccc2)cc1Cl)c1c[nH]c2ncnc(N[C@@H]3CC[C@@H](CO)OC3)c12 [ARQ-531, (2-chloro-4-phenoxyphenyl) (4-(((3R,6S)-6-(hydroxymethyl)tetrahydro-2H-pyran-3-yl)amino)-7H-pyrrolo[2,3-d]pyrimidin-5-yl) methanone] | 90 to 100% | 70 to 89% | ≥ 50% | 90 to 100% | 70 to 89% | 70 to 89% | – | – | – | – | – |
| Cc1cccnc1[C@H]1CCC[C@@H](c2ncccc2C)N1CCN1CCN(C(=O)c2ccc(-c3cc4c(-c5cccc(NC(=O)c6ccccc6)c5C)ncnc4[nH]3)cc2)CC1 [Compound I-10, N-(3-(6-(4-(4-(2-((2R,6S)-2,6-bis(3-methylpyridin-2-yl)piperidin-1-yl)ethyl)piperazine-1-carbonyl)phenyl)-7H-pyrrolo[2,3-d]pyrimidin-4-yl)-2-methylphenyl)benzamide] | < 50% | < 50% | 50 to 89% | 70 to 89% | < 50% | < 50% | 0.1 to 2 µM | more effective in promoting apoptosis | 50 to 89% | 70 to 89% | – |
| Cc1cc(-c2ccnc(Nc3cnn(CCN4[C@@H](c5ncccc5C)CCC[C@H]4c4ncccc4C)c3)n2)ccc1CNC(=O)N1CC(OC(C)C)C1 [Compound I-11] | – | – | – | – | – | – | 0.1 to 2 µM | more effective in promoting apoptosis | – | – | – |
| COc1ccc(F)cc1C(=O)NCc1ccc(-c2nn([C@@H](C)C(F)(F)F)c(N)c2C(N)=O)cc1 [LOXO-305, pirtobrutinib] | < 50% | < 50% | – | < 50% | < 50% | < 50% | – | – | – | < 50% | – |
| C=CC(=O)N1CCC([C@@H]2CCNc3c(C(N)=O)c(-c4ccc(Oc5ccccc5)cc4)nn32)CC1 [Zanubrutinib, (7S)-2-(4-phenoxyphenyl)-7-(1-prop-2-enoylpiperidin-4-yl)-4,5,6,7-tetrahydropyrazolo[1,5-a]pyrimidine-3-carboxamide] | – | < 50% | – | < 50% | < 50% | < 50% | – | – | – | < 50% | 17.7 µM |

From US20250326753A1, “DUAL CXCR4-BTK INHIBITORS” (X4 Pharmaceuticals, Inc., priority 2022, published 2025)
